The target in test [1] is T1, Aldo-keto reductase family 1 member B1 (Homo sapiens, UniProt P15121). In words: Inhibition of recombinant human ALR2 assessed as reduction in NADPH oxidation measured for 5 mins in presence of D,L-glyceraldehyde by spectrophotometric method.
The target in test [2] is T1, Aldo-keto reductase family 1 member B1. In words: Potency index, ratio of sorbinil IC50 to compound IC50 for recombinant human ALR2.
For test [3] the target is unchanged. The test can be described thus: Inhibition of recombinant human ALR2 assessed as reduction in NADPH oxidation at 13 uM measured for 5 mins in presence of D,L-glyceraldehyde by spectrophotometric method relative to control.

By IC50 is commonly meant the concentration at which inhibition is half-maximal. As to `CC1=N/C(=C\c2ccc(F)cc2)C(=O)N1CC(=O)O`, the IC50 in test [1] was 650 nM.

As for `CCOC(=O)COc1ccc(/C=C2\N=C(C)N(CC(=O)OCC)C2=O)cc1`, the IC50 in test [1] was determined as 109000 nM.

With `CC1=N/C(=C\c2cc(C)c(O)c(C)c2)C(=O)N1CC(=O)O`, the IC50 in test [1] turned out to be 130 nM.

Turning to `CC1=N/C(=C\c2ccccc2)C(=O)N1CC(=O)O`, in test [1], the IC50 is 580 nM.

Turning to `CC1=N/C(=C\c2ccc(Cl)cc2)C(=O)N1CC(=O)O`, in test [1], the IC50 turned out to be 270 nM.

As to `CC1=N/C(=C\c2ccc(OCC(=O)O)cc2)C(=O)N1CC(=O)O`, the IC50 in test [1] amounted to 310 nM.

As for `CC1=N/C(=C\c2ccc(O)cc2)C(=O)N1CCC(=O)O`, in test [1], the 50% inhibitory concentration (IC50) came out at 10700 nM.

In the case of `CC1=N/C(=C\c2ccc(Br)cc2)C(=O)N1CC(=O)O`, the IC50 in test [1] worked out at 240 nM.

On to `CC1=N/C(=C\c2cccc3ccccc23)C(=O)N1CC(=O)O`, for which the IC50 in test [1] is 540 nM.

`CC1=N/C(=C\c2ccc(O)cc2)C(=O)N1CC(=O)O`: in test [1], the IC50 turned out to be 360 nM. For the same compound, the Ratio IC50 in test [2] is 6.

As to `CCOC(=O)CN1C(=O)/C(=C/c2ccccc2)N=C1C`, the IC50 in test [1] turned out to be 112000 nM.

Turning to `COc1ccc(/C=C2\N=C(C)N(CC(=O)O)C2=O)cc1`, the half-maximal inhibitory concentration (IC50) in test [1] amounted to 510 nM.

As for `CCOC(=O)CN1C(=O)/C(=C/c2ccc(O)cc2)N=C1C`, in test [1], the IC50 was determined as 23000 nM.

What is called inhibition is the percentage by which the read-out fell short of the control. As for `CCOC(=O)CN1C(=O)/C(=C/c2ccc(Cl)cc2)N=C1C`, the inhibition in test [3] turned out to be 16%.

With `CC1=N/C(=C\c2ccc3ccccc3c2)C(=O)N1CC(=O)O`, the IC50 in test [1] came out at 100 nM.

For `CC1=N/C(=C\c2cccc(O)c2)C(=O)N1CC(=O)O`, the IC50 in test [1] was 3200 nM.

(Values after ChEMBL document CHEMBL3877286, “Green fluorescent protein chromophore derivatives as a new class of aldose reductase inhibitors” (Eur J Med Chem, 2017).)
